The test concerns the target T1, Human complement C1s enzyme (Homo sapiens, UniProt P09871).
T1 construct: purified from human serum, Complement Technology, Inc; purchased Complement Technology, Inc; host or cells: human serum (plasma-derived native protein)
T1 sequence (P09871 438-688 limits assumed): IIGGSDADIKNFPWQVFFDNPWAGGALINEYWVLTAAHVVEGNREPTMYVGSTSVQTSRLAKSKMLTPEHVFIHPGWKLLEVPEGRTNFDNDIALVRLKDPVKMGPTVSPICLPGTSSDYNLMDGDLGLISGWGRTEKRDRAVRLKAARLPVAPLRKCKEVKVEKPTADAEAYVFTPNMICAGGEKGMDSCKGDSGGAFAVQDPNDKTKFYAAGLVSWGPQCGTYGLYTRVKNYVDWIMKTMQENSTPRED
T1 sequence (P09871 16-437 partner limits assumed): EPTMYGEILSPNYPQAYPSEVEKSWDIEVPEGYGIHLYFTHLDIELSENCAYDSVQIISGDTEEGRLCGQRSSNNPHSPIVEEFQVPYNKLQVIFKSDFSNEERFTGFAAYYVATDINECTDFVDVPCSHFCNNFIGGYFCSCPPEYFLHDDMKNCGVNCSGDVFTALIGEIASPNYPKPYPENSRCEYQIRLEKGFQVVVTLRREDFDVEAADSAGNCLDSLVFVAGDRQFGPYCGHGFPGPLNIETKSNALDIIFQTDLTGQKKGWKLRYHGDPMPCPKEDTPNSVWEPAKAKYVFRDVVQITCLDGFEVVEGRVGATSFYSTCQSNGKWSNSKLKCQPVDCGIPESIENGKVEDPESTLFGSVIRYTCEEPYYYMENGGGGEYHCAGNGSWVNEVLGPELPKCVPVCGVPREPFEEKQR
Description: Human C1s enzyme assay. It counts as biochemical. The following applies: human complement C1s enzyme 1.16 nM, substrate Z-L-Lys-SBzl, A405; read-out: IC50 (Stars). In outline:
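Thioesterase activity followed colorimetrically (DTNB, A405, 30-s reads) using 100 μM Z-L-Lys-SBzl substrate. Enzyme, human serum-derived C1s at 1.16 nM final, was incubated with test compound for 5 min, room temperature, pH 7.5 Tris buffer with 1 M NaCl. Rate-versus-concentration data fitted by nonlinear regression for IC50.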

Each structure is given as a SMILES string.

Usually IC50 stands for the concentration at which inhibition is half-maximal. For `O=C(Cn1c(-c2ccccc2)ncc(NCCCc2ccc(C3(F)COC3)cc2)c1=O)NCc1cc2cnccc2[nH]1` [Compound 116, N-((1H-pyrrolo[3,2-c]pyridine-2-yl)methyl)-2-(5-((3-(4-(3-fluorooxetan-3-yl)phenyl)propyl)amino)-6-oxo-2-phenylpyrimidin-1(6H)-yl)acetamide], the IC50 is less than 100 nM.
Take `O=C(Cn1c(-c2cccc(F)c2)ncc(NCc2ccc3oc4ccccc4c3c2)c1=O)NCc1cc2cnccc2[nH]1` [Compound 117, N-((1H-pyrrolo[3,2-c]pyridin-2-yl)methyl)-2-(5-((dibenzo [b,d]furan-2-ylmethyl)amino)-2-(3-fluorophenyl)-6-oxopyr-imidin-1(6H)-yl)acetamide]: the IC50 was less than 100 nM.
To `O=C(Cn1c(-c2ccc(Cl)cc2)ncc(NCc2ccc3oc4ccccc4c3c2)c1=O)NCc1cc2cnccc2[nH]1` [Compound 118, N-((1H-pyrrolo[3,2-c]pyridin-2-yl)methyl)-2-(2-(4-chloro-phenyl)-5-((dibenzo[b,d]furan-2-ylmethyl)amino)-6-oxopyr-imidin-1(6H)-yl)acetamide] belongs less than 100 nM; to `COc1ccc(-c2ncc(NCc3ccc4oc5ccccc5c4c3)c(=O)n2CC(=O)NCc2cc3cnccc3[nH]2)cc1` [Compound 119, N-((1H-pyrrolo[3,2-c]pyridin-2-yl)methyl)-2-(5-((dibenzo [b,d]furan-2-ylmethyl)amino)-2-(4-methoxyphenyl)-6-oxo-pyrimidin-1(6H)-yl)acetamide], less than 100 nM; to `O=C(Cn1c(-c2ccccc2F)ncc(NCc2ccc3oc4ccccc4c3c2)c1=O)NCc1cc2cnccc2[nH]1` [Compound 120, N-((1H-pyrrolo[3,2-c]pyridin-2-yl)methyl)-2-(5-((dibenzo [b,d]furan-2-ylmethyl)amino)-2-(2-fluorophenyl)-6-oxopyr-imidin-1(6H)-yl)acetamide], less than 100 nM.
Turning to `O=C(Cn1c(-c2ccc(F)cc2)ncc(NCc2ccc3oc4ccccc4c3c2)c1=O)NCc1cc2cnccc2[nH]1` [Compound 123, N-((1H-pyrrolo[3,2-c]pyridine-2-yl)methyl)-2-(5-((dibenzo[b,d]furan-2-ylmethyl)amino)-2-(4-fluorophenyl)-6-oxopyrimidin-1(6H)-yl)acetamide], the IC50 is less than 100 nM.
As for `O=C(Cn1c(-c2ccc(OC3CS(=O)(=O)C3)cc2)ncc(NCCCc2ccccc2)c1=O)NCc1cc2cnccc2[nH]1` [Compound 124, N-((1H-pyrrolo[3,2-c]pyridine-2-yl)methyl)-2-(2-(4-((1,1-dioxidothietan-3-yl)oxy)phenyl)-6-oxo-5-((3-phenylpropyl)amino)pyrimidin-1(6H)-yl)acetamide], the IC50 was less than 100 nM.
To `O=C(Cn1c(-c2ccc(O[C@@H]3CO[C@H]4[C@@H]3OC[C@H]4O)cc2)ncc(NCCCc2ccccc2)c1=O)NCc1cc2cnccc2[nH]1` [Compound 125, N-((1H-pyrrolo[3,2-c]pyridine-2-yl)methyl)-2-(2-(4-(((3R,3aR,6R,6aR)-6-hydroxyhexahydrofuro[3,2-b]furan-3-yl)oxy)phenyl)-6-oxo-5-((3-phenylpropyl)amino)pyrimidin-1(6H)-yl)acetamide] belongs less than 100 nM.
To `C[C@@H](Nc1cnc(-c2ccccc2)n(CC(=O)NCc2cc3cnccc3[nH]2)c1=O)c1ccc2oc3ccccc3c2c1` [Compound 126, (R)-N-((1H-pyrrolo[3,2-c]pyr-idin-2-yl)methyl)-2-(5-((1-(dibenzo[b,d]furan-2-yl)ethyl)-amino)-6-oxo-2-phenylpyrimi-din-1(6H)-yl)acetamide] belongs less than 100 nM.
On to `C[C@H](Nc1cnc(-c2ccccc2)n(CC(=O)NCc2cc3cnccc3[nH]2)c1=O)c1ccc2oc3ccccc3c2c1` [Compound 127, (S)—N-((1H-pyrrolo[3,2-c]pyridine-2-yl)methyl)-2-(5-((1-(dibenzo[b,d]furan-2-yl)ethyl)amino)-6-oxo-2-phenylpyrimidin-1(6H)-yl)acetamide], for which the IC50 is less than 100 nM.

For the origin of these results see patent US20260184707A1, “PHARMACEUTICAL COMPOUNDS FOR THE TREATMENT OF COMPLEMENT MEDIATED DISORDERS” (ALEXION PHARMACEUTICALS, INC., priority 2022, published 2026).
